Experimental data published in patent US8859598B2, “1, 2, 4-oxadiazoles azetidine derivatives as sphingosine-1 phosphate receptors modulators” (Allergan, Inc., priority 2012, dated 2014).

Target: T1, human S1P1 receptor (Homo sapiens, UniProt P21453)
T1 construct: expressed in transfected cells; membranes used
Assay: GTP γ35S binding assay for S1P1 activity
Assay type: biochemical
Conditions: membranes of cells stably expressing the S1P1 receptor, test concentrations 0.08 to 5,000 nM
Protocol: Compounds were synthesized and tested for S1P1 activity using the GTP γ^35S binding assay. These compounds may be assessed for their ability to activate or block activation of the human S1P1 receptor in cells stably expressing the S1P1 receptor.
GTP γ^35S binding was measured in the medium containing (mM) HEPES 25, pH 7.4, MgCl2 10, NaCl 100, dithitothreitol 0.5, digitonin 0.003%, 0.2 nM GTP γ^35S, and 5 μg membrane protein in a volume of 150 μl. Test compounds were included in the concentration range from 0.08 to 5,000 nM unless indicated otherwise. Membranes were incubated with 100 μM 5′-adenylylimmidodiphosphate for 30 min, and subsequently with 10 μM GDP for 10 min on ice. Drug solutions and membrane were mixed, and then reactions were initiated by adding GTP γ^35S and continued for 30 min at 25° C. Reaction mixtures were filtered over Whatman GF/B filters under vacuum, and washed three times with 3 mL of ice-cold buffer (HEPES 25, pH7.4, MgCl2 10 and NaCl 100). Filters were dried and mixed with scintillant, and counted for ^35S activity using a β-counter. Agonist-induced GTP γ^35S binding was obtained by subtracting that in the absence of agonist. Binding data were analyzed using a non-linear regression method. In case of antagonist assay, the reaction mixture contained 10 nM […] in the presence of test antagonist at concentrations ranging from 0.08 to 5000 nM.

T1 sequence (P21453 whole entry): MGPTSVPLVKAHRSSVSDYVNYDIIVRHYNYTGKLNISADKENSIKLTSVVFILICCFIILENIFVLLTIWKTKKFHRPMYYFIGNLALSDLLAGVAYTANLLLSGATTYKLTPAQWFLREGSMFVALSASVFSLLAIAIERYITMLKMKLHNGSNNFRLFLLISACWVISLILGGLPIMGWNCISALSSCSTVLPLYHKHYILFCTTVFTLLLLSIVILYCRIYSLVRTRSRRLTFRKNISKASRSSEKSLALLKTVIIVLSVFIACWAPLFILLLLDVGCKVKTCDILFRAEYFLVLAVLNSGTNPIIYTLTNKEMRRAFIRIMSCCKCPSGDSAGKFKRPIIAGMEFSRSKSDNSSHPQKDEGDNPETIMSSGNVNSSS

EC50: 483 nM
SMILES: O=C(O)C1CN(Cc2ccc(-c3noc(CCCCc4ccccc4)n3)cc2)C1 [Compound 1, 1-{4-[5-(4-Phenylbutyl)-1,2,4-oxadiazol-3-yl]benzyl}azetidine-3-carboxylic acid]
